Here are results for three compounds from US20090281156A1, “ENHANCING PHOTOSTABILIZATION OF OXYMETAZOLINE” (Schering-Plough Healthcare Products, Inc,, priority 2007, published 2009).

Data set [1] can be described thus: ICH photostability testing of oxymetazoline HCl solutions (quartz container, twice ICH exposure). The note with it: for drug degraded after UV light exposure: McIlvaine buffer pH=6. Format: physicochemical. Here is the method: 0.05% (w/v) oxymetazoline HCl solutions with pH ranging from 4 to 6 were prepared using McIlvaine buffer systems (Solutions I-III). At each pH level, 0.05% oxymetazoline HCl solutions containing either Povidone 29-32 (approximately 3% w/v) or PEG 1450 (approximately 5% w/v) were also made ([…]).
Example embodiments were tested for photostability according to methods described in ICH Harmonized Tripartite Guidelines Stability Testing: Photostability Testing of New Drug Substances and Products. Each sample for photostability studies was placed in an enclosed quartz container and exposed to twice the exposure required by ICH photostability guideline (total exposure of 2.4 million lux hours and an integrated near UV energy of 400 watt hours/square meter).
All of the observed oxymetazoline HCl degradation peaks were calculated and presented in percentage.

The conditions of data set [2]: exemplary conventional formulation; cited from earlier work.
The conditions of data set [3]: in vivo; cited from earlier work.

The structures appear in SMILES notation. Where a name gives a salt, the structure may show the parent alone.

For the compound `Cc1cc(C(C)(C)C)c(O)c(C)c1CC1=NCCN1` [oxymetazoline HCl, 6-tert-butyl-3-(2-imidazolin-2-ylmethyl)-2,4-dimentylphenol hydrochloride], the “drug degraded after UV light exposure” value is given as “roughly 9%” in data set [1] (24 hours of UV light exposure) and about 72% in data set [1] (40 hours of UV light exposure). Moreover, in data set [1] (aqueous solution), the light sensitivity result is “light sensitive”. Further, in data set [1] (pH 5, T=40 hours, PEG 1450 approximately 5% w/v), the “increase in the total degradation on incorporating PEG 1450” value is “roughly 4 fold”. The “increase in the total photodegradation in presence of Povidone K29-32” value in data set [1] (pH=6, T=40 hours, Povidone K29-32 approximately 3% w/v) is on record as “about 21%”.
Regarding `CCOC(=O)N1CCC(=C2c3ccc(Cl)cc3CCc3cccnc32)CC1` [loratadine], in data set [2], the antihistaminic effect lasts is over 24 h.
Turning to `CN1CCC(=C2c3ccccc3CCc3cccnc32)CC1` [Azatadine], the elimination half-life in data set [3] was 9 to 12 h.
